Results on 14 compounds are retold here after PubChem BioAssay (NCI).

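The compound was tested at five concentrations on cells cultured in 96-well plates, with a 48-hour exposure period. Abbreviation: GI50, concentration required for 50% inhibition of growth. TGI denotes the concentration required for complete inhibition of growth.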

Test systems include SNB-19 CNS; OVCAR-3 ovarian; NCI-H226 lung; SW-620 colon; OVCAR-5 ovarian; HCT-15 colon; OVCAR-8 ovarian; SR leukemia; SNB-75 CNS.
Common to all, as to assay: NCI anticancer screen, dose series, 48 h

For the compound `c1ccc(C2OC3(CCC[C@H]4C[C@H]43)O[C@H]2c2ccccc2)cc1` (some centres not stated), the TGI with SNB-19 CNS, in the test on OVCAR-3 ovarian, in the test on NCI-H226 lung, in the test on SW-620 colon, in the test with OVCAR-5 ovarian and in the test on HCT-15 colon was over 100 µM in each case. For the same compound, the values for the TGI in the test with OVCAR-8 ovarian, in the test on SR leukemia and in the test on SNB-75 CNS were over 100 µM, 54.2 µM and 91.9 µM, respectively.

As to `O=C1N2Cc3c4ccc5c3CN3C(=O)N6Cc7c(ccc(c7CN1C6(c1ccccc1)C23c1ccccc1)OCCOCCNCCOCCO4)OCCOCCNCCOCCO5` (configuration not stated), the TGI in the test with SNB-19 CNS is over 100 µM; in the test on OVCAR-3 ovarian it was over 100 µM; with NCI-H226 lung it was over 100 µM; in the test on SW-620 colon, 50.8 µM; with OVCAR-5 ovarian, over 100 µM; in the test on HCT-15 colon, 91.3 µM. For the same compound, the TGI in the test on OVCAR-8 ovarian, in the test on SR leukemia and with SNB-75 CNS was over 100 µM each time.

With `O=C1C(c2ccc(Br)cc2)=[N+]([O-])c2ccccc21`, the TGI is 42.3 µM in the test with SNB-19 CNS; 28.2 µM in the test with OVCAR-3 ovarian; 35.3 µM in the test with NCI-H226 lung; 41.5 µM in the test on SW-620 colon; 35.5 µM in the test on OVCAR-5 ovarian; 23.7 µM in the test with HCT-15 colon. Besides, the TGI worked out at 25.1 µM in the test on OVCAR-8 ovarian and 31.4 µM in the test with SNB-75 CNS.

In the case of `O=C(O)[C@H](NS(=O)(=O)c1ccc(F)cc1)c1ccccc1`, the TGI in the test on SNB-19 CNS, in the test on OVCAR-3 ovarian, in the test with NCI-H226 lung, in the test on SW-620 colon, in the test with OVCAR-5 ovarian and in the test on HCT-15 colon was over 100 µM each time. Also, the TGI in the test with OVCAR-8 ovarian and in the test on SNB-75 CNS was over 100 µM in each case.

Consider `O=[N+]([O-])C=C(c1ccc(Cl)cc1)c1ccc(Cl)cc1`, for which the TGI in the test with SNB-19 CNS is 36.5 µM; with NCI-H226 lung, 30.7 µM; in the test on SW-620 colon, 31 µM; in the test on OVCAR-5 ovarian it was 27.7 µM; with HCT-15 colon it was 38 µM; in the test on OVCAR-8 ovarian, 36.3 µM. The values for the TGI in the test on SR leukemia and with SNB-75 CNS were 54 µM and 39.7 µM, respectively.

In the case of `CN(C)CCNC(=O)c1cccc2cc3c(Cl)cccc3nc12`, the TGI with SNB-19 CNS came to 7.32 µM; with OVCAR-3 ovarian it was 4.9 µM; in the test on NCI-H226 lung, 2.73 µM; in the test with SW-620 colon, 6.17 µM; in the test on OVCAR-5 ovarian, 6.68 µM; with HCT-15 colon it was 6.37 µM. The TGI in the test with OVCAR-8 ovarian was over 20.3 µM; with SR leukemia it was 14.8 µM; in the test on SNB-75 CNS, 8.37 µM.

Consider `CCOC(=O)C(=O)CC1=Nc2ccccc2SC(c2cccc(C)c2)C1` (configuration not stated), for which the TGI in the test on SNB-19 CNS was determined as 34.6 µM; in the test on OVCAR-3 ovarian, 34 µM; with NCI-H226 lung, 32.5 µM; with SW-620 colon, 43.4 µM; with OVCAR-5 ovarian, 31.8 µM; in the test on HCT-15 colon, 35.7 µM. The TGI was 25.1 µM in the test with OVCAR-8 ovarian, 60.5 µM in the test with SR leukemia and 38.7 µM in the test with SNB-75 CNS.

`CC1/C(=N\O)CC(c2ccccc2)N(C)C1c1ccccc1` (configuration not stated): the TGI in the test on SNB-19 CNS, in the test with OVCAR-3 ovarian, in the test with NCI-H226 lung, with SW-620 colon, in the test on OVCAR-5 ovarian and with HCT-15 colon was over 100 µM each time. In addition, the TGI in the test with OVCAR-8 ovarian and in the test on SNB-75 CNS was over 100 µM in each case.

Consider `CC1=C(C(=O)Nc2ccccc2)C(c2cccc3ccccc23)C(C(=O)Nc2ccccc2)=C(C)N1`, for which the TGI in the test on SNB-19 CNS stood at 72.5 µM; in the test with OVCAR-3 ovarian, 26.4 µM; with NCI-H226 lung, 16 µM; in the test with SW-620 colon, 55.1 µM; with OVCAR-5 ovarian, 44.6 µM; in the test on HCT-15 colon, 30.5 µM. For the same compound, the TGI in the test on OVCAR-8 ovarian came out at 35.8 µM; in the test with SR leukemia, 22.6 µM; with SNB-75 CNS, 47.7 µM.

On to `Cc1cc2c(C)n(Cc3ccccc3Cl)nc2c(C(=O)O)c1C`, for which the TGI in the test with SNB-19 CNS, with OVCAR-3 ovarian, in the test with NCI-H226 lung, with SW-620 colon, with OVCAR-5 ovarian and in the test on HCT-15 colon was over 100 µM each time. The TGI with OVCAR-8 ovarian, with SR leukemia and in the test with SNB-75 CNS was over 100 µM in each case.

On to `O=C(CC1OC(O)C(Cl)=C1Cl)c1cccnc1` (configuration not stated), for which the TGI in the test on SNB-19 CNS was over 100 µM; in the test with OVCAR-3 ovarian, over 100 µM; in the test on NCI-H226 lung, over 100 µM; with SW-620 colon it was over 33.9 µM; in the test on OVCAR-5 ovarian, over 100 µM; in the test on HCT-15 colon, over 56.8 µM. Moreover, the TGI in the test with OVCAR-8 ovarian, with SR leukemia and in the test with SNB-75 CNS was over 100 µM throughout.

`CN(C)C(=N/O)/C(=N\O)N(C)C`: the TGI in the test on SNB-19 CNS, in the test on NCI-H226 lung, in the test with SW-620 colon, in the test on OVCAR-5 ovarian, in the test on HCT-15 colon and in the test with OVCAR-8 ovarian was over 100 µM throughout. Moreover, the TGI in the test with SR leukemia and with SNB-75 CNS was over 100 µM throughout.

Take `O=C1C=CC=C/C1=C1/SC(c2ccccc2)=C(O)N1c1ccccc1`: the TGI in the test on SNB-19 CNS, with OVCAR-3 ovarian, in the test with NCI-H226 lung, with SW-620 colon, in the test with OVCAR-5 ovarian and in the test on HCT-15 colon was over 100 µM in each case. For the same compound, the TGI in the test with OVCAR-8 ovarian and with SNB-75 CNS was over 100 µM each time.

For `C[CH2][Ge]([CH2]C)([CH2]C)[O]C(=O)C(OC(C)=O)c1ccccc1` (configuration not stated), the GI50 in the test on SNB-19 CNS, in the test on OVCAR-3 ovarian, with NCI-H226 lung, in the test with SW-620 colon, in the test on OVCAR-5 ovarian and in the test with HCT-15 colon was over 100 µM throughout. Moreover, the GI50 with OVCAR-8 ovarian and in the test on SNB-75 CNS was over 100 µM throughout. For the same compound, the TGI in the test on SNB-19 CNS, in the test with OVCAR-3 ovarian, in the test on NCI-H226 lung, in the test with SW-620 colon, with OVCAR-5 ovarian and in the test with HCT-15 colon was over 100 µM in each case. Further, the TGI with OVCAR-8 ovarian and in the test on SNB-75 CNS was over 100 µM throughout.
